Source: publication PMC5809175 (Investigational new drugs, 2016)

What was measured:
[1] = Phase I 3 + 3 dose escalation and expansion: DLT, MTD and RP2D; assay type: in vivo, human; settings: extensive CYP2C19 metabolizers
[2] = clinical; settings: human, in vivo
[3] = tested on: CYP3A4; settings: cited from earlier work
[4] = cited from earlier work
[5] = tested on: hepatocellular carcinoma; settings: patients with hepatocellular carcinoma, p=0.04, cited from earlier work
[6] = tested on: CYP2C19 and CYP3A4/5; settings: cited from earlier work

| Compound | MTD and RP2D, temsirolimus ([1]; intravenous, in combination with tivantinib) [mg weekly] | AUC0–∞, ratio (%) geometric means [2] [%] | Cmax, ratio (%) geometric means [2] [%] | AUC(0-inf) ([2]; AUC0–∞, geometric mean) [ng·h/mL] | Cmax ([2]; Cmax, geometric mean) [ng/mL] | metabolizing enzymes [3] | MTD and RP2D, tivantinib ([1]; oral, in combination with temsirolimus) [mg twice daily] | Dose adjusted AUC0–12, geometric mean [2] [ng·h/mL/mg] | Dose adjusted Cmax, geometric mean [2] [ng/mL/mg] | RP2D in CYP2C19 poor metabolizers [4] [mg twice daily] | time to progression, HR vs placebo ([5]; 90% CI 0.43–0.94) | time to progression ([5]; placebo 1.4 months) [months] | metabolizing enzymes [6] |
| --- | --- | --- | --- | --- | --- | --- | --- | --- | --- | --- | --- | --- | --- |
| CO[C@H]1C[C@@H]2CC[C@@H](C)[C@@](O)(O2)C(=O)C(=O)N2CCCC[C@H]2C(=O)O[C@H]([C@H](C)C[C@@H]2CC[C@@H](OC(=O)C(C)(CO)CO)[C@H](OC)C2)CC(=O)[C@H](C)/C=C(\C)[C@@H](O)[C@@H](OC)C(=O)[C@H](C)C[C@H](C)/C=C/C=C/C=C/1C [temsirolimus] | 20 | 1.09 | 0.94 | 1340 | 363 | primarily metabolized by CYP3A4 |  |  |  |  |  |  |  |
| O=C1NC(=O)[C@@H](c2cn3c4c(cccc24)CCC3)[C@@H]1c1c[nH]c2ccccc12 [tivantinib] |  |  |  |  |  |  | 240 | 67.78 | 9.27 | 240 | 0.64 | 1.6 | metabolized primarily by CYP2C19 and partially by CYP3A4/5 |
